In patent publication US20190254285A1, “SODIUM PHOSPHITE COMBINATIONS” (priority 2016, published 2019):

Tests used:
Type in all cases: in vivo
[1] = test system: Penicillium discolor; experiment: Penicillium discolor rot on wounded apples cv Gala; conditions: for Efficacy (%): rot surface area vs untreated control, phosphite 16 mM, natamycin 100 ppm
Description: Tested fruit: apples cv Gala from organic origin/SKAL certified. SKAL is a semi-governmental Dutch organization that controls organic production in the Netherlands. Wounds of the apples were checked at day 3. All phosphite concentrations were tested at a concentration of 16 mM of phosphonate. Natamycin (95%, Freda) solo and in combination was tested at a concentration of 100 ppm. […] Used pathogen: Penicillium discolor spore-suspension containing 4*10E6 spores/ml. Application: The fruit peel of the apple was damaged with a cork borer, ø4 mm and depth ˜0.5 cm into the fruit, with 2 wounds per apple. 40 microliter of a freshly prepared spore suspension of P. discolor was applied by pipette onto each wound. Subsequently, the spore-suspension was allowed to air-dry for 4 hours. Then, 50 microliter of a treatment as presented in the list above was applied by pipette to each wound. All fruits were kept at room temperature (20° C.). Wounds of the apples were checked after 4, 7 and 9 days of incubation. The efficacy is calculated by measuring the surface area (square mm) of the rot on the apples, and compared to the untreated control (see Table 4). Replicates: All treatments for the apple experiment were performed on six individual apples with two wounds each resulting in 12 wounds per treatment.

[2] = test system: black sigatoka; experiment: Black sigatoka on banana plants, single leaf test, leaf 3 curative, DITHANE 60 SC; conditions: for Area infected (%) / Efficacy: 8 DAA, leaf 3 curative, DITHANE 60 SC 5 liter/ha; for Area infected (%): phosphites 2 mol/l at 3 liter/ha; for Efficacy: vs untreated control
Description: (§1) A single leaf test was established in a research station located in the community of “Anita Grande,” county of Jimenez, province of Limon, Costa Rica (latitude 10°15′14.15″N, longitude 83°44′20.29″W).
(§2) Every treatment was established in individual plants. Treatments were applied to leaf number 1 to determine their effect as preventive. Leaf position is counted from top to bottom, whereby leaf number 1 is closest to the unfolded leaf. Treatments were distributed systematically to facilitate their location in the field.
(§3) Product applications were done in an area of 10×10 cm, with a special equipment designed to simulate aerial applications. Application was done at 35 pound-force per square inch. Since weather conditions were highly conducive for disease development, and inoculum density was very high, no artificial inoculation was done. All treatments were applied to the same position on the leaf to minimize experimental error. All treatments were applied at the equivalent volume of 25 L ha^−1, as it is done commercially. A total of 3 sprays were applied, application A at Day 0, application B at 7 days after application A (DAA), and application C at day 13 DAA. VOLLEY® 88 OL was sprayed at 5.525 L/ha and the different phosphites were applied at the same PO3 concentration of 2 mol/l and were sprayed at 3 liter/ha.
(§4) For the evaluation of the efficacy, the diseased area that was affected in the 10×10 cm leaf area was recorded. Evaluations were done 23, 30 and 36 DAA. Efficacy was calculated by comparing the treatments against the untreated control.
(§5) Similar to Example 8, with the following differences: DITHANE® 60 SC (Dow AgroSciences) at a rate of 5 liter/ha was applied instead of […] and only one measurement was performed at 23 days after application A (DAA).
Similar to Example 9, with the following differences: Treatments and measurements were applied to leaf number 3, to determine their effect as curative, and one measurement was performed at 8 days after application A (DAA).

[3] = test system: black sigatoka; experiment: Black sigatoka on banana plants, single leaf test, leaf 1 preventive, DITHANE 60 SC; conditions: for Area infected (%) / Efficacy: 23 DAA, leaf 1 preventive, DITHANE 60 SC 5 liter/ha; for Area infected (%): phosphites 2 mol/l at 3 liter/ha; for Efficacy: vs untreated control
Description: as §1, §2, §3, §4, §5

[4] = test system: Botrytis cinerea; experiment: Botrytis cinerea rot on wounded apple and banana fruit; parameters: key: Different results are indicated by different letters; Different results are indicated by different letters; Different results are indicated by different letters; Different results are indicated by different letters; Different results are indicated by different letters
Source text: Tested fruit: apple (cv Elstar) and a banana (cv Cavendish) from organic origin/SKAL certified. SKAL is a semi-governmental Dutch organization that controls organic production in the Netherlands.
Used pathogen: Botrytis cinerea spore-suspension containing ˜3×10^5 propagules (spores)/ml.
Application: Fruit peel was damaged with a cork borer, depth ˜0.5 cm into the fruit, 2 wounds per apple fruit; 2 wounds per banana fruit. 30 microliters of a freshly prepared spore suspension of B. cinerea (estimated 3×10^5 spores/ml) were applied by pipette onto each wound. Subsequently, the spore-suspension was allowed to air-dry for 3 hours. 50 microliters of fungicide suspensions 1-6 were applied by pipette to each wound.
All fruits were kept at room temperature (20° C.).
Replicates: All treatments (1-6) were performed on 6 individual apples and 6 individual bananas with 2 wounds each resulting in 12 wounds per fruit per treatment. The recorded observed antifungal activity is the reduction (in percentages) of the average surface of the rot as observed in the 12 wounds compared to the rot surface of the untreated control.
Observation: All wounds were inspected daily for visual symptoms of fruit rot and/or fungus growth. Rot surface was determined after 5 and 7 days (see Tables 1, 2 and 3). The recorded observed antifungal activity is the surface of the rot.

[5] = test system: powdery mildew; experiment: Powdery mildew on tomato leaf disks; conditions: for Surface area (%): leaf disk area covered by powdery mildew after 10 days, phosphite 16 mM, sulfur 0.5 g per liter
Description: Leaves were taken from 5 to 6 week old tomato plant. Per treatment 5 ml was sprayed over 5 leaves and dried for 1 hour. Circular disks were punched from the treated leaves with a diameter of 11 mm. 5 disks per treatment were put on water agar in 90 mm ø petri dishes. Water agar was made by sterilizing agar-agar (5 g/L, Carl Roth), benzimidazole (30 mg/L, Sigma-Aldrich) and antibiotic tetracycline hydrochloride (25 mg/L, Carl Roth) in water. Disks were infected by brushing powdery mildew spores from an infected leave until disks were visually covered by spores. […] Efficacy was calculated by comparing the treatments against the untreated control. Replicates: 20 disks were used per treatment. All phosphite concentrations were tested at a concentration of 16 mM of phosphite. Formulated sulfur was applied at a dose of 0.5 g sulfur per liter. Formulated sulfur consists of the following elements: Sulfur±50% (w/w); Anionic surfactant<3%; Non-ionic surfactant <3%; Water±44%.

[6] = test system: black sigatoka; experiment: Black sigatoka on banana plants, single leaf test, leaf 1 preventive, VOLLEY 88 OL; conditions: for Area infected (%) / Efficacy: VOLLEY 88 OL 5.525 L/ha, phosphites 2 mol/l at 3 liter/ha; for Efficacy: vs untreated control
Description: as §1, §2, §3
Mixture of products was done with an electric stirrer (DEWALT® General Purpose, model DW9107), equipped with a standard propel.
as §4

[7] = Table 1, phosphonate Concentration 1, mandipropamid control
[8] = Table 1, phosphonate Concentration 2, mandipropamid control
[9] = Table 1, phosphonate Concentration 3, mandipropamid control
[10] = Table 2, phosphonate Concentration 2, mefenoxam control

N.N.O=[PH](O)O [(NH4)2HPO3]
Efficacy (%) ([1]; Day 4): 71% | Efficacy (%) ([1]; Day 7): 60% | Efficacy (%) ([1]; Day 9): 55% | Area infected (%) [2]: 9.2% | Efficacy [2]: 58.6 | Area infected (%) [3]: 8.0% | Efficacy [3]: 57.9 | Effect on fungicidal attack of Botrytis on apple and banana [4, 7]: d | Effect on fungicidal attack of Botrytis on apple and banana [4, 8]: c | Effect on fungicidal attack of Botrytis on apple and banana [4, 9]: b | Effect on fungicidal attack of Botrytis on apple and banana [4, 10]: c | Surface area (%) [5]: 66.32% | Area infected (%) ([6]; 23 DAA): 9.8% | Efficacy ([6]; 23 DAA): 48.4 | Area infected (%) ([6]; 30 DAA): 26.2% | Efficacy ([6]; 30 DAA): 39.1 | Area infected (%) ([6]; 36 DAA): 34.0% | Efficacy ([6]; 36 DAA): 34.4

O=[PH]([O-])[O-].[K+].[K+] [Treatment K2HPO3]
Efficacy (%) ([1]; Day 4): 59% | Efficacy (%) ([1]; Day 7): 27% | Efficacy (%) ([1]; Day 9): 22% | Area infected (%) [2]: 12.6% | Efficacy [2]: 43.2 | Area infected (%) [3]: 10.6% | Efficacy [3]: 44.2 | Effect on fungicidal attack of Botrytis on apple and banana [4, 7]: d | Effect on fungicidal attack of Botrytis on apple and banana [4, 8]: c | Effect on fungicidal attack of Botrytis on apple and banana [4, 9]: b | Effect on fungicidal attack of Botrytis on apple and banana [4, 10]: c | Surface area (%) [5]: 58.68% | Area infected (%) ([6]; 23 DAA): 9.2% | Efficacy ([6]; 23 DAA): 51.6 | Area infected (%) ([6]; 30 DAA): 26.4% | Efficacy ([6]; 30 DAA): 38.6 | Area infected (%) ([6]; 36 DAA): 33.0% | Efficacy ([6]; 36 DAA): 26.5

disodium hydrogen phosphite [Na2HPO3]
Efficacy (%) ([1]; Day 4): 88% | Efficacy (%) ([1]; Day 7): 74% | Efficacy (%) ([1]; Day 9): 64% | Increase of the fungal efficacy of natamycin compared with other phosphite salts ([1]; equimolar phosphite concentrations, days 4, 7, 9): increases the fungal efficacy of natamycin the best at all time points | Area infected (%) [2]: 15.4% | Efficacy [2]: 30.6 | Increase of the fungal efficacy of DITHANE 60 SC compared with other phosphite salts ([2]; conclusion from Table 10, curative): increases the fungal efficacy of DITHANE® 60 SC the best | Area infected (%) [3]: 12.6% | Efficacy [3]: 33.7 | Increase of the fungal efficacy of DITHANE 60 SC compared with other phosphite salts ([3]; conclusion from Table 9, preventive): increases the fungal efficacy of DITHANE® 60 SC the best | Effect on fungicidal attack of Botrytis on apple and banana [4, 7]: d | Effect on fungicidal attack of Botrytis on apple and banana [4, 8]: c | Effect on fungicidal attack of Botrytis on apple and banana [4, 9]: b | Effect on fungicidal attack of Botrytis on apple and banana [4, 10]: c | Effect on fungicidal attack of Botrytis on apple and banana ([4]; Table 3, Na2HPO3 part, Concentration 1, mandipropamid control): d | Effect on fungicidal attack of Botrytis on apple and banana ([4]; Table 3, Na2HPO3 part, Concentration 2, mandipropamid control): c | Effect on fungicidal attack of Botrytis on apple and banana ([4]; Table 3, Na2HPO3 part, Concentration 3, mandipropamid control): b | Increase of the fungal efficacy of sulphur compared with other phosphite salts ([5]; conclusion from Table 7): increases the fungal efficacy of sulphur the best | Surface area (%) [5]: 51.20% | Area infected (%) ([6]; 23 DAA): 18.8% | Efficacy ([6]; 23 DAA): 1.1 | Area infected (%) ([6]; 30 DAA): 31.0% | Efficacy ([6]; 30 DAA): 27.9 | Area infected (%) ([6]; 36 DAA): 38.0% | Efficacy ([6]; 36 DAA): 26.9 | Increase of the fungal efficacy of VOLLEY 88 OL compared with other phosphite salts ([6]; conclusion from Table 8): increases the fungal efficacy of VOLLEY® 88 OL the best
